Measured values: patent publication US10450295B2, “Method of using an indolinone molecule and derivatives for inhibiting liver fibrosis and hepatitis” (Acclaim BioMed USA LLC, priority 2013, dated 2019)
“Also recorded” adds a separate entry of the source.

Legend:
[1] = tested on: human HSC (LX-2) cells; test: Cell cycle analysis by flow cytometry (propidium iodide); assay type: cell-based; details: 0.625 μM, vs control cultures
Method: (§1) Human Hepatic Stellate cells (LX-2 cell line) (HSCs) were obtained from the Key Lab of Regenerative Medicine, Jinan University, Guangzhou, China, which were maintained in Dulbecco's Modified Eagle Medium (DMEM)+10% fetal calf serum and penicillin-streptomycin (100 unit/ml and 0.1 mg/ml, respectively), in 5% CO2 at 37° C. inside a humidified cell incubator. The culture medium was changed every three days. To test the effects of small molecule Hesperadin on the mouse and human HSCs, the cultures were treated with 0.625 μM of Hesperadin for 48 hrs. The cultures were then fixed in ice cold 70% ethanol and incubated in phosphate buffered saline with RNase (0.25 mg/ml), Propidium iodide dye (40 μg/ml) and 0.1% Triton X for an hour at room temperature. For cell cycle analysis, the Propidium iodide stained cells were examined using a flow cytometer (“BD LSRFortessa Cell Analyzer”). The proliferation of HSCs was also evaluated by the MTT staining assay with 3-(4,5-Dimethylthiazol-2-yl)-2,5-diphenyltetrazolium bromide). HSCs were plated at 1×10^4 cells/ml and culture overnight. Hesperadin (in serial dilutions) was then added into the culture medium for 48 hours. This was followed by addition of MTT (250 μg/ml) for a further 4 hours. The medium was eluted and the formazan crystal was dissolved in 100 μL of DMSO. The absorbance (at 570 nm) was measured using a BIORAD 3550 Microplate Reader. […]

[2] = tested on: collagen 1A1 gene expression; test: Real-time RT-PCR in HSC, collagen 1A1; assay type: cell-based, human; details: 0.625 μM, FIG. 7
Method: (§2) Human Hepatic Stellate cells (LX-2 cell line) (HSCs) were obtained from the Key Lab of Regenerative Medicine, Jinan University, Guangzhou, China, which were maintained in Dulbecco's Modified Eagle Medium (DMEM)+10% fetal calf serum and penicillin-streptomycin (100 unit/ml and 0.1 mg/ml, respectively), in 5% CO2 at 37° C. inside a humidified cell incubator. The culture medium was changed every three days. To test the effects of small molecule Hesperadin on the mouse and human HSCs, the cultures were treated with 0.625 μM of Hesperadin for 48 hrs. […] The proliferation of HSCs was also evaluated by the MTT staining assay with 3-(4,5-Dimethylthiazol-2-yl)-2,5-diphenyltetrazolium bromide). […] The absorbance (at 570 nm) was measured using a BIORAD 3550 Microplate Reader. […]
(§3) Collagen type-I, -III and -VI, MMP-2, MMP-9 and TIMP-1 gene expression was determined using quantitative real-time PCR. […] Quantitation of mRNA levels was performed using a SYBR® Premix Ex Taq™ Kit (Takara) in an Applied Biosystems 7900HT Fast Real-Time PCR System. To quantify the amount of specific mRNA in the samples, a standard curve was generated for each PCR run using four amounts of the cDNA synthesized from our HSC cultures and liver samples. […] Data was analyzed using a StatView software (Abacus Concepts Inc) with Student's t-test.

[3] = tested on: human liver stellate cells; test: Cell death assay (MTT assay) SAR screening of Hesperadin related derivatives; assay type: cell-based; details: FIGS. 14A through 14T
[4] = tested on: collagen type III; test: Immunofluorescent staining of HSC cultures, collagen type III; assay type: cell-based, human; details: 0.625 μM, 24-48 hours
Method: Human Hepatic Stellate cells (LX-2 cell line) (HSCs) were obtained from the Key Lab of Regenerative Medicine, Jinan University, Guangzhou, China, which were maintained in Dulbecco's Modified Eagle Medium (DMEM)+10% fetal calf serum and penicillin-streptomycin (100 unit/ml and 0.1 mg/ml, respectively), in 5% CO2 at 37° C. inside a humidified cell incubator. The culture medium was changed every three days. To test the effects of small molecule Hesperadin on the mouse and human HSCs, the cultures were treated with 0.625 μM of Hesperadin for 48 hrs. The cultures were then fixed in ice cold 70% ethanol and incubated in phosphate buffered saline with RNase (0.25 mg/ml), Propidium iodide dye (40 μg/ml) and 0.1% Triton X for an hour at room temperature. For cell cycle analysis, the Propidium iodide stained cells were examined using a flow cytometer (“BD LSRFortessa Cell Analyzer”). The proliferation of HSCs was also evaluated by the MTT staining assay with 3-(4,5-Dimethylthiazol-2-yl)-2,5-diphenyltetrazolium bromide). […] The absorbance (at 570 nm) was measured using a BIORAD 3550 Microplate Reader. […] After washing, the sections were viewed and recorded using a FluoView FV1000 Confocal microscope and/or a Nikon i80 microscope respectively to identify the presence of HSC expressing collagens. The positive staining of Collagen types I, III and IV was analyzed with the Metamorph software.

[5] = tested on: Human Hepatic Stellate cells (LX-2 cell line); test: MTT analysis of HSC proliferation; assay type: cell-based; details: serial dilutions, 48 hours
Method: as §1

[6] = tested on: MMP-2 gene expression; test: Real-time RT-PCR in HSC, MMP-2; assay type: cell-based, human; details: 0.625 μM, FIG. 9
Method: as §2, §3

[7] = tested on: collagen 3A1 gene expression; test: Real-time RT-PCR in HSC, collagen 3A1; assay type: cell-based, human; details: 0.625 μM, FIG. 8
Method: as §2, §3

[8] = tested on: TIMP-1 gene expression; test: Real-time RT-PCR in HSC, TIMP-1; assay type: cell-based, human; details: 0.625 μM, FIG. 11
Method: as §2, §3

With `CCS(=O)(=O)Nc1ccc2c(c1)/C(=C(/Nc1ccc(CN3CCCCC3)cc1)c1ccccc1)C(=O)N2` [Hesperadin, (Z)—N-(2-oxo-3-(Phenyl(4-(piperidin-1-ylmethyl)phenylamino)methylene)indolin-5-yl)ethanesulfonamide] the “cell-cycle progression of HSCs” value [1] was “significantly more HSCs in the G2-M phase; also recorded: appeared to block cytokinesis”, the “Collagen 1A1 mRNA expression” value [2] was “confirmed by real-time RT-PCR analysis” and the “percentage of inhibition, cell death assay (MTT), relative potency” value [3] was “most potent derivative”. For the same compound, the “collagen type III expression (immunofluorescence)” value [4] was “significantly inhibited; also recorded: inhibits the synthesis of collagen type III”, the “HSC proliferation (MTT, optical density)” value [5] was “inhibited HSC proliferation in a dose dependent manner; also recorded: suppressed HSC proliferation in a dose-dependent manner” and the “MMP-2 mRNA expression” value [6] was “inhibited”. The “Collagen 3A1 mRNA expression” value [7] was “confirmed by real-time RT-PCR analysis” and the “TIMP-1 mRNA expression” value [8] was “inhibited”.
